Values after ≈ are worked out from the molar mass of the structure shown. Like-named read-outs stand apart in the source and are kept apart here.
What was measured:
houseflies = test: whole plant or invertebrate; conditions: Musca domestica, topical, 24 h, read-out: Houseflies LD50
Protocol: Toxicity of the compounds of the present invention to houseflies was tested using the technique described by March and Metcalf in Bull. Calif. State Dept. Agr. […] Adult female houseflies were treated with one drop of acetone solution, applied to the prothorax, using a syringe calibrated to deliver 1.00 ± 0.05 mm^3 drops. Twenty flies were treated at each dosage, each test compound was applied at 8 to 10 dosage levels. Each test was replicated three times. […] A one-inch square of cotton saturated with 40% sugar solution was provided for food in each carton. The cartons of flies were held in a constant temperature chamber at 60° F and 60% relative humidity for 24 hours before mortality counts were made. Flies totally unable to make crawling or walking movements were counted as dead. LD50 values were calculated in the conventional manner.

Culex fatigans = test: whole plant or invertebrate; conditions: Culex quinquefasciatus, 24 h, read-out: Mosquitoes LC50
Protocol: The appropriate amount of stock solution was added with stirring to 100 ml of tap water and 20-25 fourth instar larvae of Culex fatigans were placed in the solution. After twenty-four hours, the counts were taken. Larvae not able to rise to the surface on touch were counted as dead. Each concentration was run in duplicate and each material was run on two or three different days. The average percent mortality was plotted against the logarithm of the concentration (in ppm) and the LC50 value determined by inspection.

in vivo = conditions: mouse, po
Protocol: Acute oral toxicity of the compounds of the present invention to mice was determined after the manner of Hollingworth, Fukuto, and Metcalf in J. Agr. […] A dose of 0.25 ml of each solution was administered to each of four female white Swiss mice using the "bolus" - tipped syringe. […] Final mortality determinations were made forty-eight hours after treatment.

southern army worm = conditions: 2880 min
Mexican bean beetle = test: whole plant or invertebrate; conditions: Epilachna varivestis, 48 h, read-out: % Kill, BB (systemic)
pea aphid = test: whole plant or invertebrate; conditions: Acyrthosiphon pisum, 48 h, read-out: % Kill, PA (systemic)
two-spotted spider mite = test: whole plant or invertebrate; conditions: Tetranychus urticae, 48 h; for mortality at 39 ppm: read-out: % Kill, SM (systemic), 39 ppm soil watering; for mortality at 156 ppm: read-out: % Kill, SM (systemic), 156 ppm soil watering
[1] = group printed before the slash (separate test vs carbofuran)

| Structure (SMILES) | LD50 (houseflies) [mg/kg] | LC50 (Culex fatigans) [ng/mL] | LD50 at 48 h (in vivo) [mg/kg] | further results |
| --- | --- | --- | --- | --- |
| COc1ccc(SN(C)C(=O)Oc2cccc3c2OC(C)(C)C3)cc1 [IX, 2,3-Dihydro-2,2-dimethyl-7-benzofuranyl (4-methoxyphenylthio)(methyl)carbamate] | 7.8 | 6 (≈ 0.0167 µM) | 25 to 50 |  |
| CC(C)c1ccccc1SN(C)C(=O)Oc1cccc2c1OC(C)(C)C2 [XII, 2,3-Dihydro-2,2-dimethyl-7-benzofuranyl (2-isopropylphenylthio) (methyl)carbamate] | 8.3 | 3 (≈ 0.00808 µM) | 50 to 75 |  |
| CNC(=O)Oc1cccc2c1OC(C)(C)C2 [Carbofuran, 2,3-dihydro-2,2-dimethyl-7-benzofuranyl methylcarbamate, reference compound] |  | 52 (≈ 0.235 µM) | 2 | % Kill, AW (systemic) (southern army worm; 39 ppm soil watering, group printed before the slash (separate test vs carbofuran)): 50%; % Kill, AW (systemic) (southern army worm; 39 ppm soil watering, separate test vs carbofuran): 100%; % Kill, AW (systemic) (southern army worm; 156 ppm soil watering): 100%; mortality at 39 ppm (Mexican bean beetle): 100%; mortality at 156 ppm (Mexican bean beetle): 100%; mortality at 39 ppm (pea aphid): 100%; mortality at 156 ppm (pea aphid): 100%; mortality at 39 ppm (two-spotted spider mite; [1]): 5%; mortality at 39 ppm (two-spotted spider mite; separate test vs carbofuran): 3%; mortality at 156 ppm (two-spotted spider mite; [1]): 43%; mortality at 156 ppm (two-spotted spider mite; separate test vs carbofuran): 70% |
| CN(Sc1ccccc1)C(=O)Oc1cccc2c1OC(C)(C)C2 [Example I, 2,3-Dihydro-2,2-dimethyl-7-benzofuranyl (methyl)(phenylthio)carbamate] | 9.3 | 4.5 (≈ 0.0137 µM) | 25 to 50 |  |
| CN(Sc1ccc(C#N)cc1)C(=O)Oc1cccc2c1OC(C)(C)C2 [XV, 2,3-Dihydro-2,2-dimethyl-7-benzofuranyl (4-cyanophenylthio)(methyl)carbamate] | 22.5 | 22 (≈ 0.0621 µM) | 25 to 50 |  |
| CN(Sc1ccc(Br)cc1)C(=O)Oc1cccc2c1OC(C)(C)C2 [VIII, 2,3-Dihydro-2,2-dimethyl-7-benzofuranyl (4-bromophenylthio)(methyl)carbamate] | 9 | 4 (≈ 0.0098 µM) | 50 to 75 |  |
| Cc1ccc(SN(C)C(=O)Oc2cccc3c2OC(C)(C)C3)c(C)c1 [XIII, 2,3-Dihydro-2,2-dimethyl-7-benzofuranyl (2,4-dimethylphenylthio)(methyl)carbamate] | 9 | 3 (≈ 0.00839 µM) | 50 to 100 |  |
| CN(Sc1ccc2ccccc2c1)C(=O)Oc1cccc2c1OC(C)(C)C2 [XVII, 2,3-Dihydro-2,2-dimethyl-7-benzofuranyl (methyl)(2-naphthylthio)carbamate] | 8 | 3.2 (≈ 0.00843 µM) | 40 |  |
